Each structure is given as a SMILES string.

Drawing on patent US11414431B2, “Substituted pyrazolo[1,5-a]pyrimidines as TYK2 inhibitors” (Nimbus Lakshmi, Inc., priority 2018, dated 2022), this text covers Kd for 30 molecules.

This experiment deals with human TYK2 (JH2domain-pseudokinase) (Homo sapiens (Human), UniProt P29597). The experiment can be described thus: TYK2 JH2 Domain Binding Assay (KINOMEscan). The following applies: 11-point 3-fold dilution, top concentration 30,000 nM, duplicate; read-out: hTYK2_JH2_Binding (Kd; nM). On the procedure:
Binding constants for compounds of the present invention against the JH2 domain were determined by the following protocol for a KINOMEscan® assay (DiscoveRx). A fusion protein of a partial length construct of human TYK2 (JH2domain-pseudokinase) (amino acids G556 to D888 based on reference sequence NP_003322.3) and the DNA binding domain of NFkB was expressed in transiently transfected HEK293 cells. From these HEK 293 cells, extracts were prepared in M-PER extraction buffer (Pierce) in the presence of Protease Inhibitor Cocktail Complete (Roche) and Phosphatase Inhibitor Cocktail Set II (Merck) per manufacturers' instructions. The TYK2(JH2domain-pseudokinase) fusion protein was labeled with a chimeric double-stranded DNA tag containing the NFkB binding site (5′-[…]-3′) fused to an amplicon for qPCR readout, which was added directly to the expression extract (the final concentration of DNA-tag in the binding reaction is 0.1 nM).
The liganded beads were blocked with excess biotin and washed with blocking buffer (SeaBlock (Pierce), 1% BSA, 0.05% Tween 20, 1 mM DTT) to remove unbound ligand and to reduce nonspecific binding.
Extracts were loaded with DNA-tag and diluted into the binding reaction in a two step process. First extracts were diluted 1:100 in 1× binding buffer (PBS/0.05% Tween 20/10 mM DTT/0.1% BSA/2 μg/ml sonicated salmon sperm DNA) containing 10 nM DNA-tag. This dilution was allowed to equilibrate at room temperature for 15 minutes and then subsequently diluted 1:100 in 1× binding buffer. […] Kds were determined using an 11-point 3-fold compound dilution series with three DMSO control points. […] The compounds were then diluted directly into the assays such that the final concentration of DMSO was 0.9%. All reactions performed in polypropylene 384-well plates. Each was a final volume of 0.02 mL. Assays were incubated with shaking for 1 hour at room temperature. Then the beads were pelleted and washed with wash buffer (lx PBS, 0.05% Tween 20) to remove displaced kinase and test compound. […] The qPCR protocol consisted of a 10 minute hot start at 95° C., followed by 35 cycles of 95° C. for 15 seconds, 60° C. for 1 minute.
Kds were determined using an 11-point 3-fold compound dilution series with three DMSO control points. […] The compounds were then diluted directly into the assays such that the final concentration of DMSO was 0.9%. The Kds were determined using a compound top concentration of 30,000 nM. Kd measurements were performed in duplicate.
Binding constants (Kds) were calculated with a standard dose-response curve using the Hill equation: […]
The Hill Slope was set to −1.

Sequence of human TYK2 (JH2domain-pseudokinase) (P29597 556-888): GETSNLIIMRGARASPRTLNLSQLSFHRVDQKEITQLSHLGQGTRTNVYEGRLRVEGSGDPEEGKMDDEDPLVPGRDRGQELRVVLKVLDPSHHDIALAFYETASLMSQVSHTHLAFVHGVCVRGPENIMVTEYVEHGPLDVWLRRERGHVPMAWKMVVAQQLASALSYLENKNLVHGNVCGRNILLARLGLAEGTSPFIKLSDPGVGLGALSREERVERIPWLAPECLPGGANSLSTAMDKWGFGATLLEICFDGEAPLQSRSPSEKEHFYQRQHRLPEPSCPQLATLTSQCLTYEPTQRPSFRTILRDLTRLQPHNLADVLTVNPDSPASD

Broadly, the Kd is the free concentration of one partner at which half of the binding sites on the other are occupied at equilibrium, for simple one-to-one binding. For the molecule `CNc1cc(Nc2cccn(C3CC(F)(F)C3)c2=O)nc2c(C(=O)N[C@H]3CCC[C@]3(C)O)cnn12` [Compound I-90, 5-((1-(3,3-Difluorocyclobutyl)-2-oxo-1,2-dihydropyridin-3-yl)amino)-N-((1S,2S)-2-hydroxy-2-methylcyclopentyl)-7-(methylamino)pyrazolo[1,5-a]pyrimidine-3-carboxamide], the equilibrium dissociation constant (Kd) is more than 10 nM.
`CNc1cc(Nc2cccn(C3CC(F)(F)C3)c2=O)nc2c(C(=O)N[C@@H]3CCC[C@@]3(C)O)cnn12` [Compound I-91, 5-((1-(3,3-Difluorocyclobutyl)-2-oxo-1,2-dihydropyridin-3-yl)amino)-N-((1R,2R)-2-hydroxy-2-methylcyclopentyl)-7-(methylamino)pyrazolo[1,5-a]pyrimidine-3-carboxamide]: the Kd was less than 0.2 nM.
To `CNc1cc(Nc2cccn(C3CC(F)(F)C3)c2=O)nc2c(C(=O)N[C@@H]3CCC[C@@](C)(O)C3)cnn12` [Compound I-92, 5-((1-(3,3-Difluorocyclobutyl)-2-oxo-1,2-dihydropyridin-3-yl)amino)-N-((1R,3R)-3-hydroxy-3-methylcyclohexyl)-7-(methylamino)pyrazolo[1,5-a]pyrimidine-3-carboxamide] belongs more than 10 nM.
As to `CNc1cc(Nc2cccn(C3CC(F)(F)C3)c2=O)nc2c(C(=O)N[C@H]3CCC[C@](C)(O)C3)cnn12` [Compound I-93, 5-((1-(3,3-Difluorocyclobutyl)-2-oxo-1,2-dihydropyridin-3-yl)amino)-N-((1S,3S)-3-hydroxy-3-methylcyclohexyl)-7-(methylamino)pyrazolo[1,5-a]pyrimidine-3-carboxamide], the dissociation constant Kd lay within 0.2 to 1 nM.
`CNc1cc(Nc2cccn([C@H]3CC[C@@H]3O)c2=O)nc2c(C(=O)N[C@@H]3CCC[C@@H](OC)C3)cnn12` [Compound I-96, 5-((1-((1S,2S)-2-Hydroxycyclobutyl)-2-oxo-1,2-dihydropyridin-3-yl)amino)-N-((1R,3R)-3-methoxycyclohexyl)-7-(methylamino)pyrazolo[1,5-a]pyrimidine-3-carboxamide]: the Kd was 1 to 10 nM.
As for `CNc1cc(Nc2cccn([C@H]3CC[C@@H]3O)c2=O)nc2c(C(=O)N[C@H]3CCC[C@H](OC)C3)cnn12` [Compound I-97, 5-((1-((1S,2S)-2-Hydroxycyclobutyl)-2-oxo-1,2-dihydropyridin-3-yl)amino)-N-((1S,3S)-3-methoxycyclohexyl)-7-(methylamino)pyrazolo[1,5-a]pyrimidine-3-carboxamide], the Kd lay within 1 to 10 nM.
For `CNc1cc(Nc2cccn([C@@H]3CC[C@@H]3O)c2=O)nc2c(C(=O)N[C@@H]3CCC[C@@H](OC)C3)cnn12` [Compound I-98, 5-((1-((1R,2S)-2-Hydroxycyclobutyl)-2-oxo-1,2-dihydropyridin-3-yl)amino)-N-((trans-1,3)-3-methoxycyclohexyl)-7-(methylamino)pyrazolo[1,5-a]pyrimidine-3-carboxamide], the Kd was less than 0.2 nM.
For `CNc1cc(Nc2cccn([C@@H]3CC[C@@H]3O)c2=O)nc2c(C(=O)N[C@@H]3CCC[C@@H](OC)C3)cnn12` [Compound I-99, 5-((1-((1R,2S)-2-Hydroxycyclobutyl)-2-oxo-1,2-dihydropyridin-3-yl)amino)-N-((1R,3R)-3-methoxycyclohexyl)-7-(methylamino)pyrazolo[1,5-a]pyrimidine-3-carboxamide], the Kd is 0.2 to 1 nM.
As for `CNc1cc(Nc2cccn([C@@H]3CC[C@@H]3O)c2=O)nc2c(C(=O)N[C@H]3CCC[C@H](OC)C3)cnn12` [Compound I-100, 5-((1-((1R,2S)-2-Hydroxycyclobutyl)-2-oxo-1,2-dihydropyridin-3-yl)amino)-N-((1S,3S)-3-methoxycyclohexyl)-7-(methylamino)pyrazolo[1,5-a]pyrimidine-3-carboxamide], the Kd lay within 0.2 to 1 nM.
For `CNc1cc(Nc2cccn([C@H]3CC[C@H]3O)c2=O)nc2c(C(=O)NC3CCC[C@@H](OC)C3)cnn12` (stereo partly drawn) [Compound I-103, 5-((1-((1S,2R)-2-Hydroxycyclobutyl)-2-oxo-1,2-dihydropyridin-3-yl)amino)-N-((trans-1,3)-3-methoxycyclohexyl)-7-(methylamino)pyrazolo[1,5-a]pyrimidine-3-carboxamide] the value was 1 to 10 nM; for `CNc1cc(Nc2cccn([C@H]3CC[C@H]3O)c2=O)nc2c(C(=O)N[C@@H]3CCC[C@@H](OC)C3)cnn12` [Compound I-104, 5-((1-((1S,2R)-2-Hydroxycyclobutyl)-2-oxo-1,2-dihydropyridin-3-yl)amino)-N-((1R,3R)-3-methoxycyclohexyl)-7-(methylamino)pyrazolo[1,5-a]pyrimidine-3-carboxamide], 1 to 10 nM; for `CNc1cc(Nc2cccn([C@H]3CC[C@H]3O)c2=O)nc2c(C(=O)N[C@H]3CCC[C@H](OC)C3)cnn12` [Compound I-105, 5-((1-((1S,2R)-2-Hydroxycyclobutyl)-2-oxo-1,2-dihydropyridin-3-yl)amino)-N-((1S,3S)-3-methoxycyclohexyl)-7-(methylamino)pyrazolo[1,5-a]pyrimidine-3-carboxamide], 1 to 10 nM.
As to `CNc1cc(Nc2cccn(-c3coc(C)n3)c2=O)nc2c(C(=O)NC3CC3)cnn12` [Compound I-121], the Kd was more than 10 nM.
With `CNc1cc(Nc2cccn(-c3coc(C)n3)c2=O)nc2c(C(=O)N[C@@H]3C[C@@H]3F)cnn12` [Compound I-126], the Kd is more than 10 nM.
For `CNc1cc(Nc2cccn(-c3ccccn3)c2=O)nc2c(C(=O)N[C@H]3C[C@H]3F)cnn12` [Compound I-127], the Kd was less than 0.2 nM.
Consider `CNc1cc(Nc2cccn([C@H]3C[C@H](F)C3)c2=O)nc2c(C(=O)N[C@@H]3C[C@H]3OC)cnn12` [Compound I-137], for which the Kd was less than 0.2 nM.
For `CNc1cc(Nc2cccn(C3COC3)c2=O)nc2c(C(=O)N[C@H]3CC[C@H]3F)cnn12` [Compound I-161] the value was less than 0.2 nM; for `CNc1cc(Nc2cccn(-c3ocnc3C)c2=O)nc2c(C(=O)N[C@@H]3CC[C@H]3F)cnn12` [Compound I-187], less than 0.2 nM; for `CO[C@@H]1CCC1NC(=O)c1cnn2c(N)cc(Nc3cccn(-c4ccccn4)c3=O)nc12` (stereo partly drawn) [Compound I-245, 7-Amino-N-((trans-1,2)-2-methoxycyclobutyl)-5-((2-oxo-2H-[1,2′-bipyridin]-3-yl)amino)pyrazolo[1,5-a]pyrimidine-3-carboxamide], less than 0.2 nM.
For `CNc1cc(Nc2cccn([C@H]3[C@@H]4COC[C@@H]43)c2=O)nc2c(C(=O)N[C@@H]3CCC3(F)F)cnn12` [Compound I-308] the value was less than 0.2 nM.
`CNc1cc(Nc2cccn(C(C)C)c2=O)nc2c(C(=O)N[C@H]3CC[C@]3(C)O)cnn12` [Compound I-340]: the Kd was less than 0.2 nM.
As for `CNc1cc(Nc2ccc(F)n(-c3ccccn3)c2=O)nc2c(C(=O)NC3CC3)cnn12` [Compound I-473], the Kd is more than 10 nM.
With `CNc1cc(Nc2ccc(F)n(-c3ccccn3)c2=O)nc2c(C(=O)N[C@@H]3C[C@@H]3F)cnn12` [Compound I-474, 5-((6-Fluoro-2-oxo-2H-[1,2′-bipyridin]-3-yl)amino)-N-((1R,2S)-2-fluorocyclopropyl)-7-(methylamino)pyrazolo[1,5-a]pyrimidine-3-carboxamide], the Kd was in the range of 1 to 10 nM.
With `CNc1ccc(-c2cc(NC)n3ncc(C(=O)NC4CC4)c3n2)n2ccnc12` [Compound I-478, N-Cyclopropyl-7-(methylamino)-5-(8-(methylamino)imidazo[1,2-a]pyridin-5-yl)pyrazolo[1,5-a]pyrimidine-3-carboxamide], the Kd was in the range of 0.2 to 1 nM.
`CNc1ccc(-c2cc(NC)n3ncc(C(=O)N[C@H]4CC[C@@H]4OC)c3n2)n2ccnc12` [Compound I-489]: the Kd is more than 10 nM.
To `CNc1ccc(-c2cc(NC)n3ncc(C(=O)NC4CCC4(F)F)c3n2)n2ccnc12` (stereo not drawn) [Compound I-491] belongs less than 0.2 nM.
For `CNc1cc(-c2cn([C@H]3COC[C@@H]3O)c3ncccc23)nc2c(C(=O)NC3CC3)cnn12` [Compound I-496] the value was less than 0.2 nM; for `CNc1cc(-c2cn([C@@H]3COC[C@H]3O)c3ncccc23)nc2c(C(=O)NC3CC3)cnn12` [Compound I-497], less than 0.2 nM; for `CNc1cc(-c2cn([C@H]3CCOC[C@@H]3O)c3ncccc23)nc2c(C(=O)NC3CC3)cnn12` [Compound I-498], less than 0.2 nM.
Consider `CNc1cc(-c2cn([C@@H]3CCOC[C@H]3O)c3ncccc23)nc2c(C(=O)NC3CC3)cnn12` [Compound I-499], for which the Kd was less than 0.2 nM.
